From paper PMC5806882, “Structural and biochemical characterization of the biuret hydrolase (BiuH) from the cyanuric acid catabolism pathway of Rhizobium leguminasorum bv. viciae 3841” (PLoS ONE, 2018)

Biological target: biuret hydrolase (BiuH) (Rhizobium johnstonii, UniProt Q1M7F4, C175S)
Assay: X-ray crystal structure, […] Å
Format: binding

Chain of biuret hydrolase (BiuH) (Q1M7F4 whole entry C175S): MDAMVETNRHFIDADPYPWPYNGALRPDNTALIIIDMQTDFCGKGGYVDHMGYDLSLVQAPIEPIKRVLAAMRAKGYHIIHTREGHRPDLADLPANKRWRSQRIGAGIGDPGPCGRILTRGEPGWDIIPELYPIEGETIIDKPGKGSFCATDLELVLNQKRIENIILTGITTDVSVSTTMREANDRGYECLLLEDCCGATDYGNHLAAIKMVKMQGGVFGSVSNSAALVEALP

Structure (SMILES): NC(=O)NC(N)=O [biuret]
- X-ray crystal structure, 2.22 Å: A structure of the inactive Cys175Ser variant with biuret in the active site was obtained (PDB ID: 6AZQ).
